{
  "source": "paper PMC8086144",
  "about": "“A novel peptide antagonist of the human growth hormone receptor” (The Journal of Biological Chemistry, 2021)",
  "type_in_all_cases": "cell-based",
  "key": {"hGHR [1]": {"biological_target": "T1, hGHR (Homo sapiens, UniProt P10912)", "T1 construct": "previously reported to express high levels of endogenous hGHR; host or cells: SK-MEL-28, MALME-3M, IM9", "T1 sequence (P10912 19-638)": "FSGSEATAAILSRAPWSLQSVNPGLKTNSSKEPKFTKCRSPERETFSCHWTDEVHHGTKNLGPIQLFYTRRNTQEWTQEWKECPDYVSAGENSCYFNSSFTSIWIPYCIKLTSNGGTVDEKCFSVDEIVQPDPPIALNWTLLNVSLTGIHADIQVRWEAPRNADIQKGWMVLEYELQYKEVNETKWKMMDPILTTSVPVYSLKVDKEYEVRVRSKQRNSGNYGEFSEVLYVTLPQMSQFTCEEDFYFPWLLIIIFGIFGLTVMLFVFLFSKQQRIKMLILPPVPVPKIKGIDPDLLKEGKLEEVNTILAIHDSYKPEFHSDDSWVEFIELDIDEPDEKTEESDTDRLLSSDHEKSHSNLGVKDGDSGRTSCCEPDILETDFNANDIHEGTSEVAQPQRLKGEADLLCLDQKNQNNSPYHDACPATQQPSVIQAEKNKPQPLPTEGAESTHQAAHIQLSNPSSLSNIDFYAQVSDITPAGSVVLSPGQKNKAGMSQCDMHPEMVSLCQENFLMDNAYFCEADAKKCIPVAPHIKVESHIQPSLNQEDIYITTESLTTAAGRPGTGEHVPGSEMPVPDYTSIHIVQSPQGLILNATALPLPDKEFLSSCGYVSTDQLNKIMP", "assay": "hGH-mediated pSTAT5 in IM9 cells, Western blot", "conditions": "200 nM S1H with 2.5 nM hGH, 20 min, Western blot densitometry, n = 3", "description": "(§1) SK-MEL-28, MALME-3M, and T84 cells were grown and maintained in Eagle's Minimal Essential Medium. IM9 and L cells were grown in RPMI-1640 media and Dulbecco's modified Eagle's medium, respectively. All growth media was supplemented with 10% fetal bovine serum and 1× antibiotic-antimycotic […] solution. Cells were grown at 37 °C under a 5% CO2 atmosphere in a humidified incubator, and growth media was replaced every 48 h during incubation. No hGH was present in or added to the growth media unless specifically indicated. […]\n(§2) Following treatment, the cells were harvested at the indicated time points, and the total protein was extracted. […] Sample protein concentration was quantified using a Bradford assay with bovine serum albumin as the protein standard. Absorbance at 595 nm was measured using a Spectramax 250 multimode plate reader (Molecular Devices) and processed using SoftmaxPro v4.7.1 software.\n(§3) Cytosolic fractions from treated cells were thawed on ice, and 80 μg protein was loaded onto polyacrylamide gels for separation by SDS-PAGE. […] Chemiluminescence signals were detected using a GelDoc (BioRad) fluorescence imager. […] Percent inhibition was then measured by subtracting the pSTAT5 band intensity in each lane from the pSTAT5 band intensity of hGH-treated samples. […]"}, "hGHR [2]": {"biological_target": "T1, hGHR", "assay": "hGH-mediated pSTAT5 in SK-MEL-28 cells, Western blot", "conditions": "20 min, Western blot densitometry, n = 3", "description": "as §1, §2, §3"}, "mouse GHR": {"biological_target": "T2, mouse GHR (Mus musculus, UniProt P16882)", "T2 construct": "the mouse L fibroblasts express high levels of mouse GHR; host or cells: mouse L fibroblasts", "T2 sequence (P16882 25-650)": "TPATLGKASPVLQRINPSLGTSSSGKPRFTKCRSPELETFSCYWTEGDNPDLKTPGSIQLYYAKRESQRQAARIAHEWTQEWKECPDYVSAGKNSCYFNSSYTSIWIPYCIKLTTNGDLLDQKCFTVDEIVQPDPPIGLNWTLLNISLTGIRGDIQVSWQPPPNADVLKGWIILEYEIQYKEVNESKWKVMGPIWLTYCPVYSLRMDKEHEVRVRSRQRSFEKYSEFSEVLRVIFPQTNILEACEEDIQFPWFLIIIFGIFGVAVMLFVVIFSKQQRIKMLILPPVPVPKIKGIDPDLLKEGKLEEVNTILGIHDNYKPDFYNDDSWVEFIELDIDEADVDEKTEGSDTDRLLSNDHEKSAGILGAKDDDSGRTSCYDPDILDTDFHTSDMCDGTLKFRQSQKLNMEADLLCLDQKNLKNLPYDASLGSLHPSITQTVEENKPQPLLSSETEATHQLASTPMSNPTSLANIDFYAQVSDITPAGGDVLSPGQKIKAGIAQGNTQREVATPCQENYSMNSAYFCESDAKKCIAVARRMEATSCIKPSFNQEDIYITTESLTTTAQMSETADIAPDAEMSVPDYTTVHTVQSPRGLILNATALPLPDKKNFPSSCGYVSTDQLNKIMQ", "assay": "hGH-mediated pSTAT5 in L (mouse fibroblast) cells, Western blot", "conditions": "200 nM S1H with 2.5 nM hGH, 20 min, Western blot densitometry, n = 3", "description": "as §1, §2, §3"}},
  "data": [
    {"compound": "CC[C@H](C)[C@H](NC(=O)[C@H](Cc1ccc(O)cc1)NC(C)=O)C(=O)N1CCC[C@H]1C(=O)N[C@@H](CCCCN)C(=O)N[C@@H](CCC(=O)O)C(=O)N[C@@H](CCC(N)=O)C(=O)N[C@@H](CCCCN)C(=O)N[C@@H](Cc1ccc(O)cc1)C(=O)N[C@@H](CO)C(=O)N[C@@H](Cc1ccccc1)C(=O)N[C@@H](CC(C)C)C(=O)N[C@@H](CCC(N)=O)C(=O)N[C@@H](CC(N)=O)C(=O)N1CCC[C@H]1C(=O)N[C@@H](CCC(N)=O)C(=O)N[C@H](C(N)=O)[C@@H](C)O", "note": "[S1H]", "values": [
      {"measurement": "suppression of hGH-mediated pSTAT5", "setting": "hGHR [1]", "result": 67, "unit": "%"},
      {"measurement": "suppression of hGH-mediated pSTAT5", "setting": "hGHR [2]; 100 nM S1H with 2.5 nM hGH", "result": 46, "unit": "%"},
      {"measurement": "suppression of hGH-mediated pSTAT5", "setting": "hGHR [2]; 200 nM S1H with 2.5 nM hGH", "result": 67, "unit": "%"},
      {"measurement": "suppression of hGH-mediated pSTAT5", "setting": "mouse GHR", "result": 36, "unit": "%"}
    ]}
  ]
}
